This is an account of results in ChEMBL document CHEMBL2074396, “Functional characterization of the rat multispecific organic anion transporter OAT1 mediating basolateral uptake of anionic drugs in the kidney” (FEBS Lett, 1998).

Data set [1] addresses T1, Solute carrier family 22 member 6 (Rattus norvegicus, UniProt O35956).
T1 sequence (O35956 whole entry): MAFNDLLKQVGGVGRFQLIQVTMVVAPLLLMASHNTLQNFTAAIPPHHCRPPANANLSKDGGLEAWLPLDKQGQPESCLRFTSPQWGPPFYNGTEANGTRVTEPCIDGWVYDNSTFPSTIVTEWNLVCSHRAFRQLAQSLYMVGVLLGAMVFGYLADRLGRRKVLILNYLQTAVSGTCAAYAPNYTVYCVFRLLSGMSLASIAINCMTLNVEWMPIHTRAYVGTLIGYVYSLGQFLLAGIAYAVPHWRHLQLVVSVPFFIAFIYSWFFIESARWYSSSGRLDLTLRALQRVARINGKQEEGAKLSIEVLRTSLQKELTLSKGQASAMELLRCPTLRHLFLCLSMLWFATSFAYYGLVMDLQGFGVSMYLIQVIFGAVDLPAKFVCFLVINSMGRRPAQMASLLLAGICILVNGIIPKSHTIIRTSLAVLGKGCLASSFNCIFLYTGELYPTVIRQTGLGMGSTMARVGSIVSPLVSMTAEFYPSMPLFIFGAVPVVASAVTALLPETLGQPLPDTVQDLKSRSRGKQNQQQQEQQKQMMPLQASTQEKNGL
Put plainly: TP_TRANSPORTER: uptake in Xenopus laevis oocytes. The note with it: oocyte. Type of data set: functional, cell-based.

The target of data set [2] is T1, Solute carrier family 22 member 6. Put plainly: TP_TRANSPORTER: inhibition of PAH uptake in Xenopus laevis oocytes. Type of data set: functional, cell-based. The note with it: oocyte.

Molecules are shown by their SMILES.

In the case of `Nc1nc2ncc(CNc3ccc(C(=O)N[C@@H](CCC(=O)O)C(=O)O)cc3)nc2c(=O)[nH]1` [FOLIC ACID], the Activity result is “substrate [+]” in data set [1] and “inhibitor [+]” in data set [2].

`Cc1c(F)c(N2CCNC(C)C2)cc2c1c(=O)c(C(=O)O)cn2C1CC1` (centres undefined) [GREPAFLOXACIN]: the Activity result in data set [1] was “is not a substrate [-]”. The same measure, in the same setting: as for `C[C@H]1COc2c(N3CCN(C)CC3)c(F)cc3c(=O)c(C(=O)O)cn1c23.C[C@H]1COc2c(N3CCN(C)CC3)c(F)cc3c(=O)c(C(=O)O)cn1c23.O` [LEVOFLOXACIN], the entry is “is not a substrate [-]”.
